Measurements taken from paper PMC9661477, “New Dual P-Glycoprotein (P-gp) and Human Carbonic Anhydrase XII (hCA XII) Inhibitors as Multidrug Resistance (MDR) Reversers in Cancer Cells” (Journal of Medicinal Chemistry, 2022).
pKi: −log10 of the molar value. Where a name gives a salt, the structure may show the parent alone.

Tests used:
[1] = molecular target: hCA I (Homo sapiens, UniProt P00915); test: stopped-flow CO2 hydrase assay, hCA I; settings: read-out: Ki hCA I; stopped-flow technique, mean from three different assays
hCA I, sequence (P00915 whole entry): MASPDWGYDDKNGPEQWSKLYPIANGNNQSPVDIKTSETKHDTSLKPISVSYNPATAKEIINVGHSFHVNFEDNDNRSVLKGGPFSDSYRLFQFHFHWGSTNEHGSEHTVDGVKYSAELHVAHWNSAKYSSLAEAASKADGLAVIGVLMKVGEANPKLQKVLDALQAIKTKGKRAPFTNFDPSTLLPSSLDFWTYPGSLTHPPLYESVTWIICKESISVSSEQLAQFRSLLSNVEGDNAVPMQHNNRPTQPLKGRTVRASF
Text: (§1) An SX.18MV-R Applied Photophysics (Oxford, U.K.) stopped-flow instrument has been used to assay the catalytic/inhibition of various CA isozymes.[38] […] The inhibition constants were obtained by nonlinear least-squares methods using the Cheng–Prusoff equation, as reported earlier,[32] and represent the mean from at least three different determinations.

[2] = molecular target: hCA II (Homo sapiens, UniProt P00918); test: stopped-flow CO2 hydrase assay, hCA II; settings: read-out: Ki hCA II; stopped-flow technique, mean from three different assays
Text: as §1

[3] = molecular target: hCA IX (Homo sapiens, UniProt Q16790); test: stopped-flow CO2 hydrase assay, hCA IX; settings: read-out: Ki hCA IX; stopped-flow technique, mean from three different assays
Text: as §1

Row | SMILES | melting point | also measured
1 | COc1cc(/C=C/C(=O)OCCCCCN(CCCOC(=O)/C=C/c2cc(OC)c(OC)c(OC)c2)CCCOc2ccc3ccc(=O)oc3c2)cc(OC)c1OC (as salt: hydrochloride) [Compound 1, (E)-5-((3-((2-Oxo-2H-chromen-7-yl)oxy)propyl)(3-(((E)-3-(3,4,5-trimethoxyphenyl)acryloyl)oxy)propyl)amino)pentyl 3-(3,4,5-Trimethoxyphenyl)acrylate] | 81 to 84 °C | 
2 | COc1cc(/C=C/C(=O)OCCCCCN(CCCOC(=O)c2cc(OC)c(OC)c(OC)c2)CCCOc2ccc3ccc(=O)oc3c2)cc(OC)c1OC (as salt: hydrochloride) [Compound 2, (E)-3-((3-((2-Oxo-2H-chromen-7-yl)oxy)propyl)(5-((3-(3,4,5-trimethoxyphenyl)acryloyl)oxy)pentyl)amino)propyl 3,4,5-Trimethoxybenzoate] | 128 to 131 °C | 
3 | COc1cc(/C=C/C(=O)OCCCCCN(CCCOC(=O)c2c3ccccc3cc3ccccc23)CCCOc2ccc3ccc(=O)oc3c2)cc(OC)c1OC (as salt: hydrochloride) [Compound 3, (E)-3-((3-((2-Oxo-2H-chromen-7-yl)oxy)propyl)(5-((3-(3,4,5-trimethoxyphenyl)acryloyl)oxy)pentyl)amino)propyl Anthracene-9-carboxylate] | 94 to 97 °C | 
4 | COc1cc(/C=C/C(=O)OCCCN(CCCCCOC(=O)c2cc(OC)c(OC)c(OC)c2)CCCOc2ccc3ccc(=O)oc3c2)cc(OC)c1OC (as salt: hydrochloride) [Compound 4, (E)-5-((3-((2-Oxo-2H-chromen-7-yl)oxy)propyl)(3-((3-(3,4,5-trimethoxyphenyl)acryloyl)oxy)propyl)amino)pentyl 3,4,5-Trimethoxybenzoate] | 74 to 77 °C | 
5 | COc1cc(C(=O)OCCCCCN(CCCOC(=O)c2cc(OC)c(OC)c(OC)c2)CCCOc2ccc3ccc(=O)oc3c2)cc(OC)c1OC (as salt: hydrochloride) [Compound 5, 5-((3-((2-Oxo-2H-chromen-7-yl)oxy)propyl)(3-((3,4,5-trimethoxybenzoyl)oxy)propyl)amino)pentyl 3,4,5-Trimethoxybenzoate] | 84 to 87 °C | 
6 | COc1cc(C(=O)OCCCCCN(CCCOC(=O)c2c3ccccc3cc3ccccc23)CCCOc2ccc3ccc(=O)oc3c2)cc(OC)c1OC (as salt: hydrochloride) [Compound 6, 3-((3-((2-Oxo-2H-chromen-7-yl)oxy)propyl)(5-((3,4,5-trimethoxybenzoyl)oxy)pentyl)amino)propyl Anthracene-9-carboxylate] | 114 to 117 °C | 
7 | COc1cc(/C=C/C(=O)OCCCN(CCCCCOC(=O)c2c3ccccc3cc3ccccc23)CCCOc2ccc3ccc(=O)oc3c2)cc(OC)c1OC (as salt: hydrochloride) [Compound 7, (E)-5-((3-((2-Oxo-2H-chromen-7-yl)oxy)propyl)(3-((3-(3,4,5-trimethoxyphenyl)acryloyl)oxy)propyl)amino)pentyl Anthracene-9-carboxylate] | 92 to 95 °C | 
8 | COc1cc(C(=O)OCCCN(CCCCCOC(=O)c2c3ccccc3cc3ccccc23)CCCOc2ccc3ccc(=O)oc3c2)cc(OC)c1OC (as salt: hydrochloride) [Compound 8, 5-((3-((2-Oxo-2H-chromen-7-yl)oxy)propyl)(3-((3,4,5-trimethoxybenzoyl)oxy)propyl)amino)pentyl Anthracene-9-carboxylate] | 120 to 123 °C | 
9 | O=C(OCCCCCN(CCCOC(=O)c1c2ccccc2cc2ccccc12)CCCOc1ccc2ccc(=O)oc2c1)c1c2ccccc2cc2ccccc12 (as salt: hydrochloride) [Compound 9, 3-((5-((Anthracene-9-carbonyl)oxy)pentyl)(3-((2-oxo-2H-chromen-7-yl)oxy)propyl)amino)propyl Anthracene-9-carboxylate] | 118 to 121 °C | 
10 | COc1cc(/C=C/C(=O)OCCCCCCN(CCCOC(=O)c2cc(OC)c(OC)c(OC)c2)CCCOc2ccc3ccc(=O)oc3c2)cc(OC)c1OC (as salt: hydrochloride) [Compound 11, (E)-3-((3-((2-Oxo-2H-chromen-7-yl)oxy)propyl)(6-((3-(3,4,5-trimethoxyphenyl)acryloyl)oxy)hexyl)amino)propyl 3,4,5-Trimethoxybenzoate] | 71 to 74 °C | 
11 | COc1cc(/C=C/C(=O)OCCCCCCN(CCCOC(=O)c2c3ccccc3cc3ccccc23)CCCOc2ccc3ccc(=O)oc3c2)cc(OC)c1OC (as salt: hydrochloride) [Compound 12, (E)-3-((3-((2-Oxo-2H-chromen-7-yl)oxy)propyl)(6-((3-(3,4,5-trimethoxyphenyl)acryloyl)oxy)hexyl)amino)propyl Anthracene-9-carboxylate] | 99 to 102 °C | 
12 | COc1cc(/C=C/C(=O)OCCCN(CCCCCCOC(=O)c2cc(OC)c(OC)c(OC)c2)CCCOc2ccc3ccc(=O)oc3c2)cc(OC)c1OC (as salt: hydrochloride) [Compound 13, (E)-6-((3-((2-Oxo-2H-chromen-7-yl)oxy)propyl)(3-((3-(3,4,5-trimethoxyphenyl)acryloyl)oxy)propyl)amino)hexyl 3,4,5-Trimethoxybenzoate] | 78 to 81 °C | 
13 | COc1cc(C(=O)OCCCCCCN(CCCOC(=O)c2cc(OC)c(OC)c(OC)c2)CCCOc2ccc3ccc(=O)oc3c2)cc(OC)c1OC (as salt: hydrochloride) [Compound 14, 6-((3-((2-Oxo-2H-chromen-7-yl)oxy)propyl)(3-((3,4,5-trimethoxybenzoyl)oxy)propyl)amino)hexyl 3,4,5-Trimethoxybenzoate] | 83 to 85 °C | 
14 | COc1cc(C(=O)OCCCCCCN(CCCOC(=O)c2c3ccccc3cc3ccccc23)CCCOc2ccc3ccc(=O)oc3c2)cc(OC)c1OC (as salt: hydrochloride) [Compound 15, 3-((3-((2-Oxo-2H-chromen-7-yl)oxy)propyl)(6-((3,4,5-trimethoxybenzoyl)oxy)hexyl)amino)propyl Anthracene-9-carboxylate] | 148 to 151 °C | 
15 | COc1cc(/C=C/C(=O)OCCCN(CCCCCCOC(=O)c2c3ccccc3cc3ccccc23)CCCOc2ccc3ccc(=O)oc3c2)cc(OC)c1OC (as salt: hydrochloride) [Compound 16, (E)-6-((3-((2-Oxo-2H-chromen-7-yl)oxy)propyl)(3-((3-(3,4,5-trimethoxyphenyl)acryloyl)oxy)propyl)amino)hexyl Anthracene-9-carboxylate] | 92 to 95 °C | 
16 | COc1cc(C(=O)OCCCN(CCCCCCOC(=O)c2c3ccccc3cc3ccccc23)CCCOc2ccc3ccc(=O)oc3c2)cc(OC)c1OC (as salt: hydrochloride) [Compound 17, 6-((3-((2-Oxo-2H-chromen-7-yl)oxy)propyl)(3-((3,4,5-trimethoxybenzoyl)oxy)propyl)amino)hexyl Anthracene-9-carboxylate] | 87 to 90 °C | 
17 | O=C(OCCCCCCN(CCCOC(=O)c1c2ccccc2cc2ccccc12)CCCOc1ccc2ccc(=O)oc2c1)c1c2ccccc2cc2ccccc12 (as salt: hydrochloride) [Compound 18, 3-((6-((Anthracene-9-carbonyl)oxy)hexyl)(3-((2-oxo-2H-chromen-7-yl)oxy)propyl)amino)propyl Anthracene-9-carboxylate] | 136 to 139 °C | 
18 | COc1cc(/C=C/C(=O)OCCCCCCCN(CCCOC(=O)/C=C/c2cc(OC)c(OC)c(OC)c2)CCCOc2ccc3ccc(=O)oc3c2)cc(OC)c1OC (as salt: hydrochloride) [Compound 19, (E)-7-((3-((2-Oxo-2H-chromen-7-yl)oxy)propyl)(3-(((E)-3-(3,4,5-trimethoxyphenyl)acryloyl)oxy)propyl)amino)heptyl 3-(3,4,5-Trimethoxyphenyl)acrylate] | 90 to 92 °C | 
19 | COc1cc(/C=C/C(=O)OCCCCCCCN(CCCOC(=O)c2cc(OC)c(OC)c(OC)c2)CCCOc2ccc3ccc(=O)oc3c2)cc(OC)c1OC (as salt: hydrochloride) [Compound 20, (E)-3-((3-((2-Oxo-2H-chromen-7-yl)oxy)propyl)(7-((3-(3,4,5-trimethoxyphenyl)acryloyl)oxy)heptyl)amino)propyl 3,4,5-Trimethoxybenzoate] | 84 to 87 °C | 
20 | COc1cc(/C=C/C(=O)OCCCCCCCN(CCCOC(=O)c2c3ccccc3cc3ccccc23)CCCOc2ccc3ccc(=O)oc3c2)cc(OC)c1OC (as salt: hydrochloride) [Compound 21, (E)-3-((3-((2-Oxo-2H-chromen-7-yl)oxy)propyl)(7-((3-(3,4,5-trimethoxyphenyl)acryloyl)oxy)heptyl)amino)propyl Anthracene-9-carboxylate] | 100 to 102 °C | 
21 | COc1cc(/C=C/C(=O)OCCCN(CCCCCCCOC(=O)c2cc(OC)c(OC)c(OC)c2)CCCOc2ccc3ccc(=O)oc3c2)cc(OC)c1OC (as salt: hydrochloride) [Compound 22, (E)-7-((3-((2-Oxo-2H-chromen-7-yl)oxy)propyl)(3-((3-(3,4,5-trimethoxyphenyl)acryloyl)oxy)propyl)amino)heptyl 3,4,5-Trimethoxybenzoate] | 73 to 76 °C | 
22 | COc1cc(C(=O)OCCCN(CCCCCCCOC(=O)c2c3ccccc3cc3ccccc23)CCCOc2ccc3ccc(=O)oc3c2)cc(OC)c1OC [Compound 26, 7-((3-((2-Oxo-2H-chromen-7-yl)oxy)propyl)(3-((3,4,5-trimethoxybenzoyl)oxy)propyl)amino)heptyl Anthracene-9-carboxylate] |  | pKi [1]: < 5.00; pKi [2]: < 5.00; pKi [3]: 7.38
23 | O=C(OCCCCCCCN(CCCOC(=O)c1c2ccccc2cc2ccccc12)CCCOc1ccc2ccc(=O)oc2c1)c1c2ccccc2cc2ccccc12 [Compound 27, 3-((7-((Anthracene-9-carbonyl)oxy)heptyl)(3-((2-oxo-2H-chromen-7-yl)oxy)propyl)amino)propyl Anthracene-9-carboxylate] |  | pKi [1]: < 5.00; pKi [2]: < 5.00; pKi [3]: 6.99
